Data taken from patent publication US10543223B2, “Mannose derivatives useful for treating pathologies associated with adherent E. coli” (ENTEROME, priority 2015, dated 2020).
Several values for one entry are separate records, joined by “and”; a condition that tells them apart may be missing. Identical values can stand only once. Like-named read-outs stand apart in the source and are kept apart here.

Assays:
[1] = Plasma concentrations and pharmacokinetics after IV and PO administration to rats; assay type: in vivo, Sprague Dawley rats; settings: for % AUCextra / AUC(0-inf) / AUC(0-t) / Cmax / Tmax: DMSO, based on mean data
Method: Plasma and faeces concentrations after administration of Compound 1b and for compound 13 of WO 2014/016361 at 1 mg/kg by intravenous route and 10 mg/kg by oral route to Sprague Dawley rats
At least 8 point calibration standards are run using standard conditions which consist to LC-MS/MS system with C18 column after precipitation of proteins with acetonitrile before the start of the analytical test.
For the plasma, 100 μL of blank rat plasma are directly spiked with the compounds before being precipitate with 300 μL of acetonitrile.
The concentration ranges tested are: • 0.5 ng/mL to 1000 ng/mL for plasma, • 4 to 2000 ng/g for faeces, corresponding to 1 to 500 ng/mL of faeces homogenate. 3. In-Life Part
12 male Sprague Dawley rats around 6-7 week old are used.
At prescribed times, blood is collected. Animals are briefly anaesthetised with Isoflurane® using an anaesthetic system (Équipement Vétérinaire Minerve) during blood samplings.
Blood samples are centrifuged at 2500 rpm at +4° C. (between 0 and 9° C.), the plasma is removed and placed into labelled polypropylene tubes. Individual plasma samples are stored frozen at −20° C. (target temperature) until analysis.
100 μL of the plasma sample are taken and 300 μL of acetonitrile are added. After protein precipitation, analysis is performed using LC-MS/MS determination according to previous analytical test results.
Concentrations of the samples are calculated directly from chromatograms after automatic integration by Analyst® 1.5.1 and expressed as ng/mL.
Mean plasma concentrations are calculated (when calculable, i.e. n≥2) using individual concentration and are expressed with the corresponding standard deviation value and variation coefficient (when calculable, i.e. n≥3), with
[formula] The individual plasma concentrations are tabulated for each rat and scheduled sampling time. Concentrations below the LLOQ are indicated by BLQ. All BLQ concentrations are substituted by zero for calculation of the descriptive statistics of the concentrations. 5. Results Estimation of pharmacokinetics parameters is performed using Kinetica® (Version 4.3—Thermo Electron Corporation—Philadelphia—USA). It was performed by using a one-compartment model approach, which considers the body as a single compartment in which the concentration is homogeneous. The following parameters are estimated: Cmax (ng/mL): maximal plasma concentration Tmax (h): first time to reach Cmax AUCt (ng/mL*h): area under the plasma concentration-time curve from administration up to the last quantifiable concentration at time t
[formula] “BLQ” stands for “Below the Limit of Quantification” ([…] for plasma). Compound 1b

[2] = Faeces concentrations and recovery after IV and PO administration to rats; assay type: in vivo, Sprague Dawley rats; settings: 0-24 h; for dose excreted: Sprague Dawley, rat, faeces
Method: Plasma and faeces concentrations after administration of Compound 1b and for compound 13 of WO 2014/016361 at 1 mg/kg by intravenous route and 10 mg/kg by oral route to Sprague Dawley rats Blank rat faeces are homogenized with 3 volumes of UHQ water until obtention of a paste. Then 100 μL of the homogenate are spiked with the molecules and precipitated with 300 μL of acetonitrile. The concentration ranges tested are: • 0.5 ng/mL to 1000 ng/mL for plasma, • 4 to 2000 ng/g for faeces, corresponding to 1 to 500 ng/mL of faeces homogenate. 3. In-Life Part After administration, the animals are placed in individual metabolic cages in order to collect faeces samples during 24 hours. Faeces samples are collected over the 24 hours of the experiment. They are precisely weighed and 3 volumes of UHQ water are added. The mixture is homogeneized until obtention of a paste. Then 100 μL of the homogenate are taken and extracted with 300 μL of Acetonitrile. Analysis is performed using LC-MS/MS determination according to previous analytical test results.

[3] = male, Sprague Dawley, rat, plasma, IV 1 mg/kg
[4] = male, Sprague Dawley, rat, plasma, PO 10 mg/kg
[5] = IV 1 mg/kg, individual rats IV1-IV3, 1 mg/kg
[6] = PO 10 mg/kg, individual rats PO4-PO6, 10 mg/kg

## Cc1nc(-c2cnccn2)sc1C(=O)c1cnc(N[C@H]2O[C@H](CO)[C@@H](O)[C@H](O)[C@@H]2O)s1 [13 of WO 2014/016361]
[1]; IV 1 mg/kg, 0.083 h, individual rats IV1-IV3, 1 mg/kg
  Plasma concentration: 1451.7 ng/mL and 1443.6 ng/mL
[1]; IV 1 mg/kg, 0.5 h, individual rats IV1-IV3, 1 mg/kg
  Plasma concentration: 67.6 ng/mL and 58.5 ng/mL
[1]; IV 1 mg/kg, 2 h, individual rats IV1-IV3, 1 mg/kg
  Plasma concentration: 1.6 ng/mL and 1.8 ng/mL
[1]; IV 1 mg/kg, 6 h, individual rats IV1-IV3
  Plasma concentration: BLQ
[1]; IV 1 mg/kg, 24 h, individual rats IV1-IV3
  Plasma concentration: BLQ
[1]; IV 1 mg/kg
  % AUCextra: 0.11%
[1]; PO 10 mg/kg, 0.5 h, individual rats PO4-PO6, 10 mg/kg
  Plasma concentration: 10.9 ng/mL and 7.0 ng/mL
[1]; PO 10 mg/kg, 1 h, individual rats PO4-PO6, 10 mg/kg
  Plasma concentration: 4.6 ng/mL and 5.4 ng/mL
[1]; PO 10 mg/kg, 2 h, individual rats PO4-PO6, 10 mg/kg
  Plasma concentration: 2.3 ng/mL and 2.0 ng/mL
[1]; PO 10 mg/kg, 6 h, individual rats PO4-PO6, 10 mg/kg
  Plasma concentration: 1.9 ng/mL and 1.6 ng/mL
[1]; PO 10 mg/kg, 24 h, individual rats PO4-PO6
  Plasma concentration: BLQ
[1]; PO 10 mg/kg
  % AUCextra: 32.3%
[1]; male, Sprague Dawley, rat, plasma, iv, 1 mg/kg, IV 1 mg/kg, 0.083 h, individual rats IV1-IV3, read-out: Plasma concentration
  concentration at 0.083 h: 1130 ng/mL
[1]; male, Sprague Dawley, rat, plasma, iv, 1 mg/kg, IV 1 mg/kg, 0.083 h, mean of 3 rats (BLQ = 0), read-out: Plasma concentration, mean
  concentration at 0.083 h: 1340 ng/mL
[1]; male, Sprague Dawley, rat, plasma, iv, 1 mg/kg, IV 1 mg/kg, 0.5 h, individual rats IV1-IV3, read-out: Plasma concentration
  concentration at 0.5 h: 56.1 ng/mL
[1]; male, Sprague Dawley, rat, plasma, iv, 1 mg/kg, IV 1 mg/kg, 0.5 h, mean of 3 rats (BLQ = 0), read-out: Plasma concentration, mean
  concentration at 0.5 h: 60.8 ng/mL
[1]; male, Sprague Dawley, rat, plasma, iv, 1 mg/kg, IV 1 mg/kg, 2 h, individual rats IV1-IV3, read-out: Plasma concentration
  concentration at 2 h: 1.6 ng/mL
[1]; male, Sprague Dawley, rat, plasma, iv, 1 mg/kg, IV 1 mg/kg, 2 h, mean of 3 rats (BLQ = 0), read-out: Plasma concentration, mean
  concentration at 2 h: 1.6 ng/mL
[1]; male, Sprague Dawley, rat, plasma, iv, 1 mg/kg, IV 1 mg/kg, 6 h, mean of 3 rats (BLQ = 0), read-out: Plasma concentration, mean
  concentration at 6 h: 0 ng/mL
[1]; male, Sprague Dawley, rat, plasma, iv, 1 mg/kg, IV 1 mg/kg, 24 h, mean of 3 rats (BLQ = 0)
  concentration at 24 h: 0 ng/mL
[1]; male, Sprague Dawley, rat, plasma, po, 10 mg/kg, PO 10 mg/kg, 0.5 h, individual rats PO4-PO6, read-out: Plasma concentration
  concentration at 0.5 h: 5.5 ng/mL
[1]; male, Sprague Dawley, rat, plasma, po, 10 mg/kg, PO 10 mg/kg, 0.5 h, mean of 3 rats (BLQ = 0), read-out: Plasma concentration, mean
  concentration at 0.5 h: 7.8 ng/mL
[1]; male, Sprague Dawley, rat, plasma, po, 10 mg/kg, PO 10 mg/kg, 1 h, individual rats PO4-PO6, read-out: Plasma concentration
  concentration at 1 h: 3.3 ng/mL
[1]; male, Sprague Dawley, rat, plasma, po, 10 mg/kg, PO 10 mg/kg, 1 h, mean of 3 rats (BLQ = 0), read-out: Plasma concentration, mean
  concentration at 1 h: 4.4 ng/mL
[1]; male, Sprague Dawley, rat, plasma, po, 10 mg/kg, PO 10 mg/kg, 2 h, individual rats PO4-PO6, read-out: Plasma concentration
  concentration at 2 h: 1.9 ng/mL
[1]; male, Sprague Dawley, rat, plasma, po, 10 mg/kg, PO 10 mg/kg, 2 h, mean of 3 rats (BLQ = 0), read-out: Plasma concentration, mean
  concentration at 2 h: 2 ng/mL
[1]; male, Sprague Dawley, rat, plasma, po, 10 mg/kg, PO 10 mg/kg, 6 h, individual rats PO4-PO6, read-out: Plasma concentration
  concentration at 6 h: 1.7 ng/mL
[1]; male, Sprague Dawley, rat, plasma, po, 10 mg/kg, PO 10 mg/kg, 6 h, mean of 3 rats (BLQ = 0), read-out: Plasma concentration, mean
  concentration at 6 h: 1.7 ng/mL
[1]; male, Sprague Dawley, rat, plasma, po, 10 mg/kg, PO 10 mg/kg, 24 h, mean of 3 rats (BLQ = 0)
  concentration at 24 h: 0 ng/mL
[1]; [3]
  AUC(0-inf): 452 ng·h/mL
  AUC(0-t): 451 ng·h/mL
  Cmax: 1340 ng/mL
  Tmax: 4.8 min
[1]; male, Sprague Dawley, rat, plasma, PO 10 mg/kg vs IV 1 mg/kg, calculated based on AUCt, read-out: F (bioavailability)
  bioavailability: 0.3%
[1]; [4]
  AUC(0-t): 16 ng·h/mL
  Cmax: 7.79 ng/mL
  Tmax: 30 min
[1]; male, Sprague Dawley, rat, plasma, PO 10 mg/kg, % AUC extra >20%: value given for indication
  AUC(0-inf): 23.3 ng·h/mL
[2]; [5]
  Faeces concentration: 3303 ng/g and 3130 ng/g and 3346 ng/g
  Faeces concentration (homogenate): 826 ng/mL and 783 ng/mL and 836 ng/mL
  Recovery in faeces: 10.9% and 15.9%
  Total amount of compound in faeces: 30095 ng and 28426 ng and 38053 ng
[2]; IV 1 mg/kg, mean of 3 rats
  Faeces concentration (homogenate), mean: 815 ng/mL
  Faeces concentration, mean: 3260 ng/g
  Total amount of compound in faeces, mean: 32191 ng
[2]; [6]
  Faeces concentration: 103917 ng/g and 165663 ng/g and 132537 ng/g
  Faeces concentration (homogenate): 25979 ng/mL and 41416 ng/mL and 33134 ng/mL
  Recovery in faeces: 57.9% and 49.3%
  Total amount of compound in faeces: 1203583 ng and 1389086 ng and 1183679 ng
[2]; PO 10 mg/kg, mean of 3 rats
  Faeces concentration (homogenate), mean: 33510 ng/mL
  Faeces concentration, mean: 134039 ng/g
  Total amount of compound in faeces, mean: 1258783 ng
[2]; iv, 1 mg/kg, IV 1 mg/kg, individual rats IV1-IV3, read-out: Recovery in faeces
  dose excreted: 13.1%
[2]; iv, 1 mg/kg, IV 1 mg/kg, mean of 3 rats, read-out: Recovery in faeces, mean
  dose excreted: 13.3%
[2]; po, 10 mg/kg, PO 10 mg/kg, individual rats PO4-PO6, read-out: Recovery in faeces
  dose excreted: 50.1%
